Consider ten compounds from patent publication US6534516B1, “Androgen receptor modulator compounds and methods” (Ligand Pharmaceuticals Incorporated, priority 1996, dated 2003).

Test [1] addresses T1, human AR (Homo sapiens, UniProt P10275).
T1 construct: expressed in transfected cells; host or cells: CV-1 cells (African green monkey kidney fibroblasts)
T1 sequence (P10275 1-920): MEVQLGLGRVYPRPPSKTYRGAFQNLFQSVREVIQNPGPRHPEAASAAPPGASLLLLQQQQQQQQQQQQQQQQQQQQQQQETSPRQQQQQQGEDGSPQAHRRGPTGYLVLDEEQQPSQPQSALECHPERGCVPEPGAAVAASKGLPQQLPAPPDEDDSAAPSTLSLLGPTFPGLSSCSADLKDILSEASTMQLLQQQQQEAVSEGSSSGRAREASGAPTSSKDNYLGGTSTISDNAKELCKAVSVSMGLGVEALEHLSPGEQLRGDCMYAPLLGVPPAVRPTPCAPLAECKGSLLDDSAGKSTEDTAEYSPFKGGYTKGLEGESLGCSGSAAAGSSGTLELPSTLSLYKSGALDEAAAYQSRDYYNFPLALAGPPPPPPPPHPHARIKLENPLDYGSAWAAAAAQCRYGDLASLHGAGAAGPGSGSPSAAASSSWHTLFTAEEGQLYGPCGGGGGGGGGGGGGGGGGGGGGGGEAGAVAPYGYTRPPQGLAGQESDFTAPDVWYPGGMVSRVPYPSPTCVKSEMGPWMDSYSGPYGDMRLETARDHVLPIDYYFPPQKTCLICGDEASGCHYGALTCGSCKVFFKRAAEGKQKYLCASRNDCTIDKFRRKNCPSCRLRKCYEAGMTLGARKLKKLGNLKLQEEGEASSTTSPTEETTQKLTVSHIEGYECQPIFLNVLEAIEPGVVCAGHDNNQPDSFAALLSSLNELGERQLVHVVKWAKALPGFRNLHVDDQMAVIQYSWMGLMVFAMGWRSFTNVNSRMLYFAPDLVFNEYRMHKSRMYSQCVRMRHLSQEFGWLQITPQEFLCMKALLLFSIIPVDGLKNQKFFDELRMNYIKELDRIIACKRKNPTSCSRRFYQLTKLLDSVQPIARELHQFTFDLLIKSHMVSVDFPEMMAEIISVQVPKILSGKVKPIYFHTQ
The test is described as follows: cell-based. The conditions noted are these: read-out: AR Binding Ki.

Test [2] deals with T1, human AR. The test is described as follows: cell-based. Format: cell-based. The conditions noted are these: for AR Antagonist CV-1 Cells Efficacy: antagonist mode, DHT at its EC50, % of maximal inhibition, na = not active; for IC50: read-out: AR Antagonist CV-1 Cells Potency; for EC50: read-out: AR Agonist CV-1 Cells Potency; for AR activity profile (in words): summary of Tables 1 and 2. From the text:
The co-transfection assay provides a method for identifying functional agonists and partial agonists which mimic, or antagonists which inhibit, the effect of native hormones, and quantifying their activity for responsive IR proteins. In this regard, the co-transfection assay mimics an in vivo system in the laboratory. Importantly, activity in the co-transfection assay correlates very well with known in vivo activity, such that the co-transfection assay functions as a qualitative and quantitative predictor of a tested compounds in vivo pharmacology. See, e.g., T. Berger et al. 41 J. Steroid Biochem. Molec.
CV-1 cells (African green monkey kidney fibroblasts) were cultured in the presence of Dulbecco's Modified Eagle Medium (DMEM) supplemented with 10% charcoal resin-stripped fetal bovine serum then transferred to 96-well microtiter plates one day prior to transfection.
The reporter plasmid, MTV-LUC, contains the cDNA for firefly luciferase (LUC) under control of the mouse mammary tumor virus (MTV) long terminal repeat, a conditional promoter containing an androgen response element. See e.g., Berger et al. supra. In addition, pRS-β-Gal, coding for constitutive expression of E. coli β-galactosidase (β-Gal), was included as an internal control for evaluation of transfection efficiency and compound toxicity.
Three to four replicates were used for each sample.
After 40 hours, the cells were washed with PBS, lysed with a Triton X-100-based buffer and assayed for LUC and β-Gal activities using a luminometer or spectrophotometer, respectively. For each replicate, the normalized response (NR) was calculated as:
where β-Gal rate=β-Gal•1×10^−5/β-Gal incubation time.

The next test deals with T2, PR (Homo sapiens, UniProt P06401).
T2 sequence (P06401 1-933): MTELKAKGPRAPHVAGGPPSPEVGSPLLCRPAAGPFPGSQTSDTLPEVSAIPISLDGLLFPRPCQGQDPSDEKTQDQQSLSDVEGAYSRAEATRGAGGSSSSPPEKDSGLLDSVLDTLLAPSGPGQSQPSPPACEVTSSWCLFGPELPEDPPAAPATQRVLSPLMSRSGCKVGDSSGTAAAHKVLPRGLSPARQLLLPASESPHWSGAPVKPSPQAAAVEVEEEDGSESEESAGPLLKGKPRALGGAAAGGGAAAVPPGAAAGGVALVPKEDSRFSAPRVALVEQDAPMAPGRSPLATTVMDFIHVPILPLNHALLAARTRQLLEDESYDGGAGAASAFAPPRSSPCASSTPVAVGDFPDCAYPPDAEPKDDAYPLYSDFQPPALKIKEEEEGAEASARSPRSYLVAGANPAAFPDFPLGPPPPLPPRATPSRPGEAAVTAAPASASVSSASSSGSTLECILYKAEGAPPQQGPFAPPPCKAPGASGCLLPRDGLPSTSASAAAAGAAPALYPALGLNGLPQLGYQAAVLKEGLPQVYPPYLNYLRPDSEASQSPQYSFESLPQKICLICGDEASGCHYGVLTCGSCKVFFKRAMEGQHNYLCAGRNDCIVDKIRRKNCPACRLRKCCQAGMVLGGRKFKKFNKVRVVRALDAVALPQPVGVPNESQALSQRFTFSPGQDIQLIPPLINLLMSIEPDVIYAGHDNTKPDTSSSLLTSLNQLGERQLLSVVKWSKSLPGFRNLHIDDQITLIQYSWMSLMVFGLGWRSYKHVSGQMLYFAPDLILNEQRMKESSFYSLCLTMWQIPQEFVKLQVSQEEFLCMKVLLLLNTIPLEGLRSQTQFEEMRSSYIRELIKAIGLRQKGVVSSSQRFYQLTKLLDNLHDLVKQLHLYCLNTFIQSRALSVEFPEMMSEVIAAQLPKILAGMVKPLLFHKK
Briefly: cell-based.

The target of another test is T3, MR (Homo sapiens, UniProt P08235).
T3 construct: expressed in transfected cells
T3 sequence (P08235 1-984): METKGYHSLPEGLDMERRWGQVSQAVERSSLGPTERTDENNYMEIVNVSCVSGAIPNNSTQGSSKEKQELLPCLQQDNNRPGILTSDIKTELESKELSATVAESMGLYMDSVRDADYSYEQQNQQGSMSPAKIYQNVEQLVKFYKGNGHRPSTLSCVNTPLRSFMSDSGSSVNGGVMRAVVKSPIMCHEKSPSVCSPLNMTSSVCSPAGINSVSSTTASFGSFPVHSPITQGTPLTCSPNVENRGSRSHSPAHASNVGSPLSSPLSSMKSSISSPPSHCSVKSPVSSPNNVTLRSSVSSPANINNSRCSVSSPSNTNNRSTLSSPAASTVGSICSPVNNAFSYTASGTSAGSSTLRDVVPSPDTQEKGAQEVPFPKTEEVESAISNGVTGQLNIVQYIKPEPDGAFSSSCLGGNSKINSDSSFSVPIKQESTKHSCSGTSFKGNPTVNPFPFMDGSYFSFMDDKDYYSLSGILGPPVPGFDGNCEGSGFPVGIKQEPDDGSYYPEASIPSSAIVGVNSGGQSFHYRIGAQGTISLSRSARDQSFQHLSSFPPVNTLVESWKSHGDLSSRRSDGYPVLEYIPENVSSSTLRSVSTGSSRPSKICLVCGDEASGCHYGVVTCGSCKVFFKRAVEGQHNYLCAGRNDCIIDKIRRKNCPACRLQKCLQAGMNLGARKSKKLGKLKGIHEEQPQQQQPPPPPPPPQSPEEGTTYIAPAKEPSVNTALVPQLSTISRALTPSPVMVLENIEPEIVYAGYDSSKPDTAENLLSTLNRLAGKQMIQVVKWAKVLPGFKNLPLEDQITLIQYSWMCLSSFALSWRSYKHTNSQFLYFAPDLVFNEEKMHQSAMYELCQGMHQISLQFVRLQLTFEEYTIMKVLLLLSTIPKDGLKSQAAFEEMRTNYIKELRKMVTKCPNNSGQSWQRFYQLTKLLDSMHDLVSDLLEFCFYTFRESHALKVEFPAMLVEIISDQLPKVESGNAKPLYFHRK
The test is described as follows: Co-transfection assay, cross-reactivity on MR. Type of test: cell-based.

Broadly, the Ki is a measure of affinity in units of concentration, obtained from inhibition or displacement. For `CC12CCCN1c1cc3[nH]c(=O)c(F)c(C(F)(F)F)c3cc1CC2` (racemic) [Compound 102, (R/S)-3-Fluoro-6,7,7a,11-tetrahydro-7a-methyl-4-trifluoromethyl-2-pyridono[5,6-g]pyrrolidino[1,2-a]quinoline], at human AR [1], the inhibitory constant (Ki) was determined as 11 nM. Moreover, at human AR [2], the “AR Antagonist CV-1 Cells Efficacy” value turned out to be 85 ± 1%. The IC50 at human AR [2] was 193 ± 19 nM; at PR it was 398 nM.

Take `Cn1c(=O)c(F)c(C(F)(F)F)c2cc3c(cc21)N1CCCC1(C)CC3` (racemic) [Compound 104, (R/S)-3-Fluoro-6,7,7a,11-tetrahydro-1,7a-dimethyl-4-trifluoromethyl-2-pyridono[5,6-g]pyrrolidino[1,2-a]quinoline]: the inhibition constant Ki on human AR [1] is 93 ± 48 nM. At human AR [2], the “AR Antagonist CV-1 Cells Efficacy” value is 85 ± 2% and the IC50 was 40 ± 9 nM. Moreover, the IC50 at PR was determined as 800 nM.

`Cc1c2c(cc3c(C(F)(F)F)c(F)c(=O)[nH]c13)C(C)CC(C)(C)N2` (centres unmarked) [Compound 115, 7-Fluoro-1,2,3,4-tetrahydro-2,2,4,10-tetramethyl-6-trifluoromethyl-8-pyridono[5,6-g]quinoline]: the Ki on human AR [1] is 107 nM. For the same compound, the “AR Antagonist CV-1 Cells Efficacy” value on human AR [2] stood at 87 ± 1%.

As for `CCC1(CC)CCc2cc3c(C(F)(F)F)c(F)c(=O)[nH]c3cc2N1` [Compound 120, 2,2-Diethyl-7-fluoro-1,2,3,4-tetrahydro-6-trifluoromethyl-8-pyridono[5,6-g]quinoline], on human AR [1], the Ki amounted to 156 ± 24 nM. Moreover, at human AR [2], the “AR Agonist CV-1 Cells Efficacy” value is 18 ± 3%, the “AR Antagonist CV-1 Cells Efficacy” value is listed as 61 ± 5%, the EC50 was found to be 171 ± 95 nM and the IC50 amounted to 17 ± 2 nM.

In the case of `CC1(C)CCc2cc3c(C(F)F)c(F)c(=O)[nH]c3cc2N1` [Compound 106, 6-Difluoromethyl-7-fluoro-1,2,3,4-tetrahydro-2,2-dimethyl-8-pyridono[5,6-g]quinoline], the Ki on human AR [1] worked out at 73 ± 37 nM. On human AR [2], the “AR Antagonist CV-1 Cells Efficacy” value was found to be 78 ± 3% and the IC50 was found to be 52 ± 14 nM.

For `CN1c2cc3c(cc2CCC1(C)C)c(C(F)(F)F)c(F)c(=O)n3C` [Compound 109, 7-Fluoro-1,2,3,4-tetrahydro-1,2,2,9-tetramethyl-6-trifluoromethyl-8-pyridono[5,6-g]quinoline], on human AR [1], the Ki was determined as 18 ± 7 nM. On human AR [2], the “AR Agonist CV-1 Cells Efficacy” value is given as 13 ± 8 %, the “AR Antagonist CV-1 Cells Efficacy” value is reported as 77 ± 4%, the EC50 stood at 36 ± 45 nM and the IC50 stood at 15 ± 2 nM. For the same compound, the “AR activity profile (in words)” value on human AR [2] is recorded as “highly selective AR antagonists”.

`CCC1CCN([N+](=O)[O-])c2cc3[nH]c(=O)cc(C(F)(F)F)c3cc21` (racemic) [Compound 127, (R/S)-4-Ethyl-1,2,3,4-tetrahydro-1-nitro-6-(trifluoromethyl)-8-pyridono[5,6-g]quinoline]: the Ki on human AR [1] was 136 nM. Also, on human AR [2], the “AR Agonist CV-1 Cells Efficacy” value was found to be 56 ± 12% and the EC50 amounted to 85 ± 36 nM.

For the compound `CC1(C)CCc2cc3c(C(F)(F)F)cc(=O)[nH]c3cc2N1O` [Compound 118, 1,2,3,4-Tetrahydro-1-hydroxy-2,2-dimethyl-6-trifluoromethyl-8-pyridono[5,6-g]quinoline], at human AR [1], the inhibitory constant (Ki) came to 86 ± 29 nM. On human AR [2], the “AR Antagonist CV-1 Cells Efficacy” value amounted to 70 ± 2 % and the IC50 amounted to 482 ± 179 nM.

For the compound `Cn1c(=O)cc(C(F)(F)F)c2cc3c(cc21)N1CCCC1(C)CC3` (racemic) [Compound 103, (R/S)-6,7,7a,11-Tetrahydro-1,7a-dimethyl-4-trifluoromethyl-2-pyridono[5,6-g]pyrrolidino[1,2-a]quinoline], the IC50 on PR was 5940 nM; against MR it was 1590 nM.

With `CC1CC(C)(C)Nc2cc3[nH]c(=O)c(F)c(C(F)(F)F)c3cc21` (centres unmarked) [Compound 112, 7-Fluoro-1,2,3,4-tetrahydro-2,2,4-trimethyl-6-trifluoromethyl-8-pyridono[5,6-g]quinoline], the Ki on human AR [1] came to 61 ± 16 nM. Besides, on human AR [2], the “AR Agonist CV-1 Cells Efficacy” value is 21 ± 6%, the “AR Antagonist CV-1 Cells Efficacy” value amounted to 42 ± 10%, the EC50 came to 26 ± 15 nM and the IC50 was determined as 20 ± 1 nM. In addition, on human AR [2], the “AR activity profile (in words)” value is given as “highly selective AR antagonists”.
